Data set [1] concerns the target Trypanothione reductase (Trypanosoma brucei brucei) (UniProt P39051). The data set is described as follows: Induction of intrinsic oxidase activity of Trypanosoma brucei TR at 5 uM.
Data set [2] addresses T1, Trypanothione reductase (Trypanosoma brucei brucei, UniProt P39051). The data set is described as follows: Mixed type inhibition of Trypanosoma brucei TR using varying levels of trypanothione disulfide assessed as inhibition constant for enzyme-inhibitor complex by Lineweaver-Burk plot.
For data set [3], the system named is Leishmania donovani. Kind of data set: Antitrypanosomal activity against axenic amastigote form of Leishmania donovani MHOM-ET-67/L82 assessed as growth inhibition after 72 hrs by inverted microscopy. Conditions: MHOM-ET-67/L82, 72 h. The data set is classed as functional, organism-based.
Data set [4] can be described thus: Selectivity index, ratio of IC50 for rat L6 cells to IC50 for promastigote form of Leishmania donovani strain MHOM/SD/00/1S-2D. The data set is classed as toxicity, cell-based. The following applies: read-out: Ratio IC50.
Data set [5] has as its system Trypanosoma cruzi. The data set is described as follows: Antitrypanosomal activity against intracellular amastigote form of Trypanosoma cruzi Tulahuen C2C4 infected in rat L6 cells assessed as growth inhibition after 92 hrs by inverted microscopy. The data set is classed as functional, organism-based. The following applies: Tulahuen C2C4, L6, 92 h.
Data set [6] concerns L6. The data set is described as follows: Cytotoxicity against rat L6 cells assessed as growth inhibition after 72 hrs by inverted microscopy. The data set is classed as cell-based. The following applies: L6, 72 h.
Data set [7] concerns the target T1, Trypanothione reductase. The data set is described as follows: Noncompetitive inhibition of Trypanosoma brucei TR using varying levels of trypanothione disulfide by Lineweaver-Burk plot.
Data set [8] relates to Leishmania donovani. The data set is described as follows: Reduction in free cytoplasmic ATP level in promastigote form of Leishmania donovani 3-Luc at 2.5 to 25 uM after 15 to 20 mins by luminescence assay. The data set is classed as functional, organism-based.
Data set [9] deals with T1, Trypanothione reductase. Kind of data set: Mixed type inhibition of Trypanosoma brucei TR using varying levels of trypanothione disulfide assessed as inhibition constant for enzyme-substrate-inhibitor complex by Lineweaver-Burk plot.
Data set [10] concerns Leishmania donovani. The data set is described as follows: Induction of morphological damage in promastigote form of Leishmania donovani MHOM/ET/67/L82 assessed as accumulation of vesicular material inside the flagellar pocket at 5 uM after 4 hrs by transmission electron microscopy. The data set is classed as functional, organism-based.
A short description of data set [11]: Selectivity index, ratio of IC50 for rat L6 cells to IC50 for intracellular amastigote form of Trypanosoma cruzi Tulahuen strain C2C4. The following applies: read-out: Ratio IC50. The data set is classed as toxicity, cell-based.
Data set [12] has as its target Trypanothione reductase (Trypanosoma brucei brucei) (UniProt P39051). The data set is described as follows: Inhibition of Trypanosoma brucei TR using 40 to 100 uM trypanothione disulfide assessed as remaining activity at 5 uM.
Data set [13] in a line: Selectivity index, ratio of IC50 for rat L6 cells to IC50 for axenic amastigote form of Leishmania donovani strain MHOM-ET-67/L82. The data set is classed as toxicity, cell-based. Conditions: read-out: Ratio IC50.
Data set [14] relates to Trypanosoma brucei rhodesiense. Kind of data set: Antitrypanosomal activity against trypomastigote form of Trypanosoma brucei rhodesiense STIB 900 assessed as growth inhibition after 72 hrs by microplate fluorometry. The data set is classed as functional, organism-based. The following applies: STIB 900, 72 h.
Data set [15] deals with Leishmania donovani. Kind of data set: Reduction in mitochondrial electrochemical potential in promastigote form of Leishmania donovani MHOM/ET/67/L82 assessed as reduction in Rhodamine 123 fluorescence at 25 uM after 4 hrs by flow cytometry. The data set is classed as functional, organism-based. A general note: In flow cytometry, cells or beads pass a laser one at a time.

Data set [16] concerns Leishmania donovani. Kind of data set: Antitrypanosomal activity against promastigote form of Leishmania donovani MHOM/SD/00/1S-2D assessed as growth inhibition after 72 hrs by inverted microscopy. The data set is classed as functional, organism-based.
Data set [17] is described as follows: Selectivity index, ratio of IC50 for rat L6 cells to IC50 for trypomastigote form of Trypanosoma brucei rhodesiense strain STIB 900. The data set is classed as toxicity, cell-based. Conditions: read-out: Ratio IC50.
In data set [18] the test system is Leishmania donovani. Kind of data set: Induction of morphological damage in promastigote form of Leishmania donovani MHOM/ET/67/L82 assessed as mitochondrial swelling at 5 uM after 4 hrs by transmission electron microscopy. The data set is classed as functional, organism-based.

Calls of active or inactive are those of the source. The calls are words filed in the database; no cut-off is given here.

T1 sequence (P39051 whole entry): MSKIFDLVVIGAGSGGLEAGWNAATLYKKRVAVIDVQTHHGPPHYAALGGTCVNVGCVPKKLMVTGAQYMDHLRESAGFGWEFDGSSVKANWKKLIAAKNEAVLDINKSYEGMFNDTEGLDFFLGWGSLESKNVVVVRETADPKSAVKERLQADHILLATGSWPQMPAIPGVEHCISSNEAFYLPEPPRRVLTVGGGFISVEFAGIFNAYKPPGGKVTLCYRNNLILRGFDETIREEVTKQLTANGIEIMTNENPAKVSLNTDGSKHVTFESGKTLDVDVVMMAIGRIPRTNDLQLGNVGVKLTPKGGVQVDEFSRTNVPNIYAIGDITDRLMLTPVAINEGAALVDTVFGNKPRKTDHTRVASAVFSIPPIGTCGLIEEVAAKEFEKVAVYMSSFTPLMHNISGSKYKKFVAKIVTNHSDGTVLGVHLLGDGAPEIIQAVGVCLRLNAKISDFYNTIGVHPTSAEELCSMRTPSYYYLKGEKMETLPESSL
Trypanothione reductase (Trypanosoma brucei brucei), sequence (P39051 whole entry, looked up): as the sequence (P39051 whole entry) above

One may read the Ki as a dissociation constant, usually derived from enzyme kinetics or from competition with a known ligand. A word on the IC50: it is the midpoint of a concentration-inhibition curve. In the case of `NCCCCCNCc1ccc(OC2=CC(=O)c3cc4ccccc4cc3C2=O)cc1`, in [1], the outcome was inactive. Further, the results for the Ki in [2], in data set [7] and in data set [9] were 3.4 µM, 3.4 µM and 3.9 µM, respectively. For the same compound, the IC50 in [3] was found to be 2.44 µM; in [5] it was 17.4 µM; in data set [6] it was 5.04 µM; in data set [14], 0.07 µM; in [16], 3.62 µM. Further, the selectivity ratio in [4] stood at 1.39; in [11], 0.29; in [13], 2.06; in [17], 72. The figures for the Activity result in data set [8] and in [12] were “Dose-dependent effect” and 36%, respectively. Also, the result in data set [10] and in data set [15] was Active.
Regarding `NCCCCCNCc1ccc(OC2=CC(=O)c3ccccc3C2=O)cc1`, the outcome in data set [1] was Active. In addition, the Ki stood at 2.8 µM in data set [2] and 4.6 µM in data set [9]. Further, the IC50 amounted to 6.63 µM in data set [3]; 20 µM in data set [5]; 9.1 µM in data set [6]; 0.26 µM in [14]; 7.72 µM in [16]. Besides, the selectivity ratio in [4] was determined as 1.18; in [11] it was 0.45; in [13], 1.37; in data set [17], 35. Moreover, in [12], the Activity came to 36%.
Turning to `NCCCNCCCCNCCCNCc1ccc(OC2=CC(=O)c3ccccc3C2=O)cc1`, the outcome in [1] was Active. Besides, the IC50 in data set [3] was 5.79 µM; in data set [5], 24.1 µM; in data set [6], 7.05 µM; in data set [14], 0.45 µM; in [16], greater than 30 µM. Also, the selectivity ratio in [4] was less than 0.23; in data set [11], 0.29; in data set [13], 1.22; in [17], 15.7. For the same compound, the Activity in data set [12] amounted to 36%.
As to `O=C1C=C(Oc2ccccc2)C(=O)c2cc3ccccc3cc21`, the selectivity ratio in [4] amounted to 0.35; in data set [11] it was 0.21; in data set [13], 2.91; in data set [17], 19.8. Further, the IC50 in data set [5] was 4.66 µM; in data set [16] it was 2.81 µM. For the same compound, the Activity result was “Dose-dependent effect” in data set [8] and 51% in data set [12]. In addition, the outcome in [18] and in data set [15] was Active.
As for `NCCCNCCCCNCCCNCc1ccc(OC2=CC(=O)c3cc4ccccc4cc3C2=O)cc1`, the IC50 in [3] came to 3.35 µM; in data set [5] it was 34.8 µM; in [6] it was 7.21 µM; in [14], 0.32 µM; in data set [16], 16.1 µM. Also, the selectivity ratio in data set [4] turned out to be 0.45; in data set [11] it was 0.21; in data set [13], 2.15; in [17], 22.5.
Turning to `CCCCCCCCCCCCCCCCOP(=O)([O-])OCC[N+](C)(C)C` [MILTEFOSINE], in data set [6], the IC50 turned out to be 143 µM. In [13], the selectivity ratio amounted to 462.
Consider `NCCCNCCCCNCc1ccc(OC2=CC(=O)c3cc4ccccc4cc3C2=O)cc1`, for which the outcome in data set [1] was inactive. Besides, the half-maximal inhibitory concentration (IC50) in [3] stood at 3.13 µM; in data set [5], 39.4 µM; in data set [6] it was 6.29 µM; in data set [14] it was 0.23 µM; in data set [16], 15.4 µM. Also, the selectivity ratio in [4] is 0.41; in data set [11], 0.16; in [13] it was 2.01; in data set [17], 27.4. Also, the Activity in data set [12] worked out at 36%.
As to `NCCCNCCCNCCCNCc1ccc(OC2=CC(=O)c3ccccc3C2=O)cc1`, the 50% inhibitory concentration (IC50) in data set [3] is 7.27 µM; in data set [5] it was 18.8 µM; in data set [6] it was 6.46 µM; in [14] it was 0.46 µM; in data set [16], greater than 30 µM. Further, the selectivity ratio in data set [4] was less than 0.21; in data set [11] it was 0.34; in [13] it was 0.89; in data set [17] it was 14.
`Nc1nc(N)nc(Nc2ccc([As]3SCC(CO)S3)cc2)n1` (stereo unspecified) [MELARSOPROL]: the IC50 in data set [6] was determined as 18.3 µM. In data set [17], the selectivity ratio came to 1830.
In the case of `NCCCCNCc1ccc(OC2=CC(=O)c3cc4ccccc4cc3C2=O)cc1`, the outcome in [1] was inactive. Further, the IC50 in [3] turned out to be 2.82 µM; in [5] it was 18.6 µM; in data set [6], 5.6 µM; in data set [14], 0.35 µM; in [16], 3.59 µM. Moreover, the selectivity ratio worked out at 1.56 in data set [4], 0.3 in data set [11], 1.98 in data set [13] and 16 in data set [17]. For the same compound, in data set [12], the Activity came out at 36%.
As for `NCCCCNCc1ccc(OC2=CC(=O)c3ccccc3C2=O)cc1`, the IC50 in data set [3] worked out at 6.81 µM; in data set [5], 30 µM; in data set [6], 11.1 µM; in [14], 0.22 µM; in data set [16] it was 8.72 µM. Also, the selectivity ratio was found to be 1.27 in data set [4], 0.37 in data set [11], 1.63 in [13] and 50.5 in data set [17].
Regarding `NCCCNCCCCNCc1ccc(OC2=CC(=O)c3ccccc3C2=O)cc1`, the IC50 is 7.17 µM in data set [3]; 52.2 µM in [5]; 9.18 µM in data set [6]; 0.72 µM in [14]; greater than 30 µM in [16]. Besides, the selectivity ratio is less than 0.31 in [4], 0.18 in [11], 1.28 in data set [13] and 12.8 in data set [17].
In the case of `NCCCNCCCNCCCNCc1ccc(OC2=CC(=O)c3cc4ccccc4cc3C2=O)cc1`, the IC50 amounted to 2.4 µM in data set [3]; 17.4 µM in data set [5]; 4.87 µM in data set [6]; 0.24 µM in [14]; 9.08 µM in data set [16]. Further, the selectivity ratio turned out to be 0.53 in [4], 0.29 in [11], 2.03 in [13] and 20.3 in data set [17].
`O=C(Cn1ccnc1[N+](=O)[O-])NCc1ccccc1` [BENZNIDAZOLE]: the IC50 in [6] was greater than 384 µM.
Take `O=C1C=C(Oc2ccccc2)C(=O)c2ccccc21`: the selectivity ratio in [4] is 8; in data set [11], 4.7; in data set [13] it was 4.7; in data set [17], 74. Moreover, the figures for the IC50 in data set [5] and in data set [16] were 1.26 µM and 0.74 µM, respectively. Also, the Activity in [12] came to 51%.
Turning to `COc1cc([C@@H]2c3cc4c(cc3[C@H](O)[C@H]3COC(=O)[C@H]23)OCO4)cc(OC)c1OC` [PODOFILOX], the IC50 in data set [6] turned out to be 0.0017 µM.

(Values after ChEMBL document CHEMBL2176892, “Conjugation of quinones with natural polyamines: toward an expanded antitrypanosomatid profile” (J Med Chem, 2012).)
